Article doi:10.1101/2024.08.22.609123v2 (biorxiv, 2024)
pIC50, pKd: −log10 of the molar value.

Columns and labels:
[1] = target: T1, GPX4 (residues 28-197) (Homo sapiens, UniProt P36969); assay: SPR; assay type: binding
T1 sequence (P36969 28-197): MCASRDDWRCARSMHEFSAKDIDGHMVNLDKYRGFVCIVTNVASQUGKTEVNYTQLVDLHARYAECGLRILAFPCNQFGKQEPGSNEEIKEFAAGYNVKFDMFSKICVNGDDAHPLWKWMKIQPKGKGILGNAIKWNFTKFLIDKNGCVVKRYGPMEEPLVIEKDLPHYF

[2] = target: T2, GPX4 (Homo sapiens, UniProt P36969); assay: coupled glutathione reductase / NADPH assay, […] nm; assay type: biochemical
T2 sequence (P36969 28-197): T1 sequence (P36969 28-197)

pKd [1] | pIC50 [2] | SMILES
5.74 | 5.38 | Cc1ccc(C(=O)O)cc1-c1ccc(/C=C2\SC(=O)N(Cc3ccc(F)cc3)C2=O)o1 [DP021]
– | < 4.00 | COC(=O)c1ccc(C)c(-c2ccc(/C=C3\SC(=O)N(Cc4ccc(F)cc4)C3=O)o2)c1 [DP037]
